Experimental data taken from patent publication US11964943B2, “3,5-diarylidenyl-n-substituted-piperid-4-one-derived inhibitors of Stat3 pathway activity and uses thereof” (priority 2017, dated 2024).

What was measured:
[1] = tested on: γ-H2AX; assay: γ-H2AX immunofluorescence staining; format: cell-based; settings: DU145, 1.2 μM 18 h then 60 μM cisplatin 1 h
Experimental: For Stat3, pStat3 staining, 2.5×10^4 cells/ml were plated on 13-mm glass cover slip (VWR) in 24 well plates, allowed to adhere and processed the next day. Cells were treated with IE-8 for 18 h, and subsequently washed in ice cold PBS and fixed with 2% paraformaldehyde PFA (Alfa Aesar) for 10 min at room temperature, followed by permeabilization with PBS containing 0.5% Triton X-100 for 10 min. Cells were blocked in PBS 5% BSA for 1 h at ambient temperature. Respective proteins were identified by incubation for 4 h with anti-Stat3 and anti-pStat3 rabbit polyclonal antibodies (1:1000, Cell signalling) or anti-phospho-Histone H2A.X mouse monoclonal (1:500; Millipore) diluted in a PBS 1% BSA buffer. Cells were incubated with a secondary fluorescent conjugated antibody Alexa Fluor 488 (1:500; Life Technologies) for 2 h at RT. Nuclei were stained using propidium iodide (2 μg/ml; Sigma-Aldrich) and mounted on glass slides with mounting medium (Dako).
To quantify γ-H2AX foci from images obtained using the protocol above, the program CellProfiler was utilized. Each cell nucleus was identified and the number of foci within computationally counted. The number of foci was taken as an average from the first 30 cells measured with a detection threshold of 0.3.

[2] = tested on: nuclear Stat3; assay: Confocal microscopy of Stat3 localisation; format: cell-based; settings: DU145, 5 μM, 5 h
Experimental: For Stat3, pStat3 staining, 2.5×10^4 cells/ml were plated on 13-mm glass cover slip (VWR) in 24 well plates, allowed to adhere and processed the next day. […] Cells were blocked in PBS 5% BSA for 1 h at ambient temperature. Respective proteins were identified by incubation for 4 h with anti-Stat3 and anti-pStat3 rabbit polyclonal antibodies (1:1000, Cell signalling) or anti-phospho-Histone H2A.X mouse monoclonal (1:500; Millipore) diluted in a PBS 1% BSA buffer. Cells were incubated with a secondary fluorescent conjugated antibody Alexa Fluor 488 (1:500; Life Technologies) for 2 h at RT. […]
(§1) Cell nuclei and protein levels were visualized by confocal microscopy (objective ×40, Leica TCS SP2). […] In the case of IE-8 detection only, the blue fluorescent agent was excited with a UV-laser (364 nm) and detected using the DAPI filter. PI was excited with the 488 line of an argon-ion laser and detected at 642 nm. The fluorescence of IE-8 was detected and imaged by z-stack acquisition using the Leica SP2 microscope software. […]
as §1, with “Confocal microscopy.” for “Cell nuclei and protein levels were visualized by confocal microscopy (objective ×40, Leica TCS SP2).”, “8 h” for “IE-8”

[3] = tested on: HCT116-oxaliplatin resistant xenografts; assay: In vivo survival experiment; set-up: species or system mice
Experimental: Six- to eight-week old female Balb/c mice (weighing about 20 g) were purchased from the Harlan Laboratories, San Pietro al Natisone, Italy. The animals were kept in a pathogen-free environment, and every procedure was done in a laminar airflow cabinet. HCT16-oxaliplatin resistant cells (5×10^5) were injected subcutaneously into the right flank of female Balb/c mice. The animals were treated with IE-8 intraperitoneally (30 mg kg-1; solutions freshly prepared in the standard mixture of 1% DMSO, Cremophor, Ethanol and H2O) on days 10, 13 and 17. The animals were controlled for distress development every day. […] Control and treatment group n=4.

[4] = tested on: DU145 cells; assay: Live cell microscopy; format: cell-based; settings: DU145, increasing concentration over 24 h
Experimental: 5×10^4 DU145 cells were seeded in 8-well chamber slides (Ibidi, Martinsried, Germany). After 24 h, cells were treated with the denoted concentration (μM) IE-8 and intracellular drug accumulation was imaged at 3 h intervals on a live cell microscope (Visitron Systems, Puchheim, Germany) using a 40× oil immersion DIC objective and VisiView® software.
LEDs were used for widefield DIC and fluorescence (436/20 nm excitation and 480/40 nm bandpass filter for (CFP) fluorescence illumination (Visitron Systems). Images were taken with a sCMOS 4.2MPxl digital camera.

Structure (SMILES): COc1cc(/C=C2\CN(c3ccccc3)C/C(=C\c3cc(OC)c(OC)c(OC)c3)C2=O)cc(OC)c1OC [IE-8, 3,5-Di(3,4,5-trimethoxybenzylidene)-1-phenylpiperidin-4-one]
- DNA-damage response to cisplatin (γ-H2Ax induction) [1]: enhanced
- levels of nuclear Stat3 [2]: the levels of nuclear Stat3 were decreased
- body weight loss ([3]; 30 mg/kg intraperitoneally on days 10, 13 and 17): No body weight loss was observed
- prolongation of survival versus vehicle ([3]; 30 mg/kg intraperitoneally on days 10, 13 and 17, n=4): about 20 days
- cytoplasmic vacuolisation [4]: induced cytoplasmic vacuolisation
